28 compounds from patent US8859580B2 (Boehringer Ingelheim International GmbH, priority 2007, dated 2014) can be followed below.

The target in the assay is T1, 11β-HSD1 (Homo sapiens, UniProt P28845).
T1 construct: detecting cortisol generated from cortisterone by human liver microsomes; from tissue; host or cells: human liver microsomes
Kind of assay: In vitro inhibition of 11β-HSD1, HTRF detection of cortisol generated from cortisone by human liver microsomes. The following applies: 1 hour at 37° C., pH 6.0, NADPH 200 μM, cortisone 80 nM, inhibition relative to carbenoxolone signal. The class given is biochemical. As to the method:
Cortisol generated in the reaction is then detected with a competitive immunoassay, involving two HTRF conjugates: cortisol linked to XL665 and anti-cortisol antibody labeled with Europium cryptate. The incubation period for detection reaction was typically 2 hours. […] The ratio of the two emission signals is then calculated (Em665*10000/Em615). […] Each assay also contained a calibration curve with cortisol to transform the fluorescent data into cortisol concentrations. Percent inhibition of each compound was determined relative to the carbenoxolone signal and IC50 curves were generated.
In general terms: Time-resolved FRET reads energy transfer from a long-lived donor to a nearby acceptor.

Like-named read-outs stand apart in the source and are kept apart here.

T1 sequence (P28845 whole entry): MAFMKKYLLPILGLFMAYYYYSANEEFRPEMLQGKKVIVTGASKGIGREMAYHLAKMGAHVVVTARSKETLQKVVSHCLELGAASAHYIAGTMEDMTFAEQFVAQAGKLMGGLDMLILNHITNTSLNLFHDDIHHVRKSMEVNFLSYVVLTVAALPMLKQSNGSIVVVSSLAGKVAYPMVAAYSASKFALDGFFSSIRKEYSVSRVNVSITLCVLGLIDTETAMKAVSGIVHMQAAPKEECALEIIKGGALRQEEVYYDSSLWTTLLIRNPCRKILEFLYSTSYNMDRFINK

Under “11β-HSD IC50 (nM)”, `C[C@H]1[C@H]2Cc3ccccc3[C@]1(C)CCN2C(=O)c1ccc2nc[nH]c2c1` (racemic) [Example 77, (3H-Benzoimidazol-5-yl)-(6,11-dimethyl-1,2,5,6-tetrahydro-4H-2,6-methano-benzo[d]azocin-3-yl)-methanone] returned a half-maximal inhibitory concentration (IC50) of 144 nM.

On to `CC1(C)[C@H]2Cc3ccccc3[C@]1(C)CCN2C(=O)c1ccc2nc[nH]c2c1` (racemic) [Example 82, (3H-Benzoimidazol-5-yl)-[(2R,6S)-6,11,11-trimethyl-1,2,5,6-tetrahydro-4H-2,6-methano-benzo[d]azocin-3-yl]-methanone], for which, under “11β-HSD IC50 (nM)”, the IC50 came out at 56 nM.

In turn, `CC[C@@H]1[C@H]2Cc3ccc(O)cc3[C@]1(CC)CCN2C(=O)c1ccc2nc[nH]c2c1` (racemic) [Example 85, (3H-Benzoimidazol-5-yl)-(6,11-diethyl-8-hydroxy-1,2,5,6-tetrahydro-4H-2,6-methano-benzo[d]azocin-3-yl)-methanone] had an IC50 (11β-HSD IC50 (nM)) of 89 nM.

In turn, `CC[C@H]1[C@H]2Cc3ccc(O)cc3[C@]1(CC)CCN2C(=O)c1ccc2nc[nH]c2c1` (racemic) [Example 86, (3H-Benzoimidazol-5-yl)-(6,11-diethyl-8-hydroxy-1,2,5,6-tetrahydro-4H-2,6-methano-benzo[d]azocin-3-yl)-methanone] registered an IC50 (11β-HSD IC50 (nM)) of 2400 nM.

The compound `CC[C@]12CCN(C(=O)c3ccc4nc[nH]c4c3)[C@H](Cc3ccc(O)cc31)[C@@H]2C` (racemic) [Example 87, (3H-Benzoimidazol-5-yl)-(6-ethyl-8-hydroxy-11-methyl-1,2,5,6-tetrahydro-4H-2,6-methano-benzo[d]azocin-3-yl)-methanone] showed a half-inhibitory concentration (IC50) (11β-HSD IC50 (nM)) of 622 nM.

Under “11β-HSD IC50 (nM)”, `CC[C@]12CCN(C(=O)c3ccc4nc[nH]c4c3)[C@H](Cc3ccc(O)cc31)[C@H]2C` (racemic) [Example 200, (3H-Benzoimidazol-5-yl)-(6-ethyl-8-hydroxy-11-methyl-1,2,5,6-tetrahydro-4H-2,6-methano-benzo[d]azocin-3-yl)-methanone] displayed an IC50 of 117 nM.

`C[C@@H]1C[C@]2(C)C[C@@H](Cc3ccccc32)N1C(=O)c1ccc2nc[nH]c2c1` (racemic) [Example 253, (3H-Benzoimidazol-5-yl)-(4,6-dimethyl 1,2,5,6-tetrahydro-4H-2,6-methano-benzo[d]azocin-3-yl)-methanone] gave a 50% inhibitory concentration (IC50) (11β-HSD IC50 (nM)) of 78 nM.

In turn, `C[C@@H]1CN(C(=O)c2ccc3nc[nH]c3c2)[C@@H]2Cc3ccccc3[C@@]1(C)C2` (racemic) [Example 294, (3H-Benzoimidazol-5-yl)-(5,6-dimethyl-1,2,5,6-tetrahydro-4H-2,6-methano-benzo[d]azocin-3-yl)-methanone] gave a half-inhibitory concentration (IC50) (11β-HSD IC50 (nM)) of 146 nM.

In the case of `O=C(c1ccc2nc[nH]c2c1)N1CC[C@@H]2C[C@H]1Cc1cccnc12` (racemic) [Example 325, (3H-Benzoimidazol-5-yl)-(5,8,9,10-tetrahydro-6H-6,10-methano-pyrido[3,2-d]azocin-7-yl)-methanone], the IC50 (read-out: 11β-HSD IC50) stood at 771 nM.

With `COc1cc2c(cc1C)C[C@@H]1N(C(=O)c3ccc4nc[nH]c4c3)CC[C@@]2(C)C1(C)C` (stereo in doubt) [Example 61, (3H-Benzoimidazol-5-yl)-[(2S,6R)-8-methoxy-6,9,11,11-tetramethyl-1,2,5,6-tetrahydro-4H-2,6-methano-benzo[d]azocin-3-yl]-methanone], the 50% inhibitory concentration (IC50) (11β-HSD IC50 (nM)) came to 798 nM.

Regarding `COc1cc2c(cc1C)C[C@H]1N(C(=O)c3ccc4nc[nH]c4c3)CC[C@]2(C)C1(C)C` (stereo in doubt) [Example 62, (3H-Benzoimidazol-5-yl)-[(2R,6S)-8-methoxy-6,9,11,11-tetramethyl-1,2,5,6-tetrahydro-4H-2,6-methano-benzo[d]azocin-3-yl]-methanone], under “11β-HSD IC50 (nM)”, half-maximal inhibition (IC50) was put at 109 nM.

Under “11β-HSD IC50 (nM)”, `COc1cc2c(cc1C)[C@]1(C)CCN(C(=O)c3ccc4nc[nH]c4c3)[C@H](C2)C1(C)C` (stereo in doubt) [Example 63, (3H-Benzoimidazol-5-yl)-[(2R,6S)-9-methoxy-6,8,11,11-tetramethyl-1,2,5,6-tetrahydro-4H-2,6-methano-benzo[d]azocin-3-yl]-methanone] displayed an IC50 of 216 nM.

With `COc1cc2c(cc1C)[C@@]1(C)CCN(C(=O)c3ccc4nc[nH]c4c3)[C@@H](C2)C1(C)C` (stereo in doubt) [Example 64, (3H-Benzoimidazol-5-yl)-[(2S,6R)-9-methoxy-6,8,11,11-tetramethyl-1,2,5,6-tetrahydro-4H-2,6-methano-benzo[d]azocin-3-yl]-methanone], 753 nM corresponded to half-maximal inhibition (11β-HSD IC50 (nM)) (IC50).

In the case of `Cc1cc2c(cc1O)[C@]1(C)CCN(C(=O)c3ccc4nc[nH]c4c3)[C@H](C2)C1(C)C` (stereo in doubt) [Example 65, (3H-Benzoimidazol-5-yl)-[(2R,6S)-8-hydroxy-6,9,11,11-tetramethyl-1,2,5,6-tetrahydro-4H-2,6-methano-benzo[d]azocin-3-yl]-methanone], the IC50 (11β-HSD IC50 (nM)) worked out at 29 nM.

`Cc1cc2c(cc1O)[C@@]1(C)CCN(C(=O)c3ccc4nc[nH]c4c3)[C@@H](C2)C1(C)C` (stereo in doubt) [Example 66, (3H-Benzoimidazol-5-yl)-[(2S,6R)-8-hydroxy-6,9,11,11-tetramethyl-1,2,5,6-tetrahydro-4H-2,6-methano-benzo[d]azocin-3-yl]-methanone] yielded an IC50 (11β-HSD IC50 (nM)) of 822 nM.

Turning to `Cc1cc2c(cc1O)C[C@H]1N(C(=O)c3ccc4nc[nH]c4c3)CC[C@]2(C)C1(C)C` (stereo in doubt) [Example 67, (3H-Benzoimidazol-5-yl)-[(2R,6S)-9-hydroxy-6,8,11,11-tetramethyl-1,2,5,6-tetrahydro-4H-2,6-methano-benzo[d]azocin-a 3-yl]-methanone], the IC50 (11β-HSD IC50 (nM)) is 32 nM.

For the compound `Cc1cc2c(cc1O)C[C@@H]1N(C(=O)c3ccc4nc[nH]c4c3)CC[C@@]2(C)C1(C)C` (stereo in doubt) [Example 68, (3H-Benzoimidazol-5-yl)-[(2S,6R)-9-hydroxy-6,8,11,11-tetramethyl-1,2,5,6-tetrahydro-4H-2,6-methano-benzo[d]azocin-3-yl]-methanone], the IC50 (11β-HSD IC50 (nM)) was determined as 372 nM.

Compound `CC1(C)[C@H]2Cc3c(O)cccc3[C@]1(C)CCN2C(=O)c1ccccc1` [Example 1, [(2R,6S)-10-Hydroxy-6,11,11-trimethyl-1,2,5,6-tetrahydro-4H-2,6-methano-benzo[d]azocin-3-yl]-phenyl-methanone] registered an IC50 (11β-HSD IC50 (nM)) of 285 nM.

Regarding `CC1(C)[C@H]2Cc3c(O)cccc3[C@]1(C)CCN2C(=O)c1ccccc1Cl` [Example 2, (2-Chloro-phenyl)-[(2R,6S)-10-hydroxy-6,11,11-trimethyl-1,2,5,6-tetrahydro-4H-2,6-methano-benzo[d]azocin-3-yl]-methanone], 741 nM corresponded to half-maximal inhibition (11β-HSD IC50 (nM)) (IC50).

`CC1(C)[C@H]2Cc3c(O)cccc3[C@]1(C)CCN2C(=O)c1ccc(C(N)=O)cc1` [Example 3, 4-[(2R,6S)-10-Hydroxy-6,11,11-trimethyl-1,2,5,6-tetrahydro-4H-2,6-methano-benzo[d]azocine-3-carbonyl]benzamide] yielded an IC50 (11β-HSD IC50 (nM)) of 85 nM.

Compound `CC1(C)[C@H]2Cc3c(O)cccc3[C@]1(C)CCN2C(=O)c1ccc2nc[nH]c2c1` [Example 4, (3H-Benzoimidazol-5-yl)-[(2R,6S)-10-hydroxy-6,11,11-trimethyl-1,2,5,6-tetrahydro-4H-2,6-methano-benzo[d]azocin-3-yl]-methanone] came in with a concentration for half-maximal inhibition (IC50) (11β-HSD IC50 (nM)) of 56 nM.

`Cc1ccccc1C(=O)N1CC[C@@]2(C)c3cccc(O)c3C[C@@H]1C2(C)C` [Example 5, [(2R,6S)-10-Hydroxy-6,11,11-trimethyl-1,2,5,6-tetrahydro-4H-2,6-methano-benzo[d]azocin-3-yl]-o-tolyl-methanone] gave a concentration for half-maximal inhibition (IC50) (11β-HSD IC50 (nM)) of 3100 nM.

Where the note is “11β-HSD IC50 (nM)”, `COc1ccccc1C(=O)N1CC[C@@]2(C)c3cccc(O)c3C[C@@H]1C2(C)C` [Example 6, [(2R,6S)-10-Hydroxy-6,11,11-trimethyl-1,2,5,6-tetrahydro-4H-2,6-methano-benzo[d]azocin-3-yl)-(2-methoxy-phenyl]-methanone] had an IC50 of 1060 nM.

`Cc1cccc(C(=O)N2CC[C@@]3(C)c4cccc(O)c4C[C@@H]2C3(C)C)c1` [Example 7, [(2R,6S)-10-Hydroxy-6,11,11-trimethyl-1,2,5,6-tetrahydro-4H-2,6-methano-benzo[d]azocin-3-yl]-m-tolyl-methanone] displayed a 50% inhibitory concentration (IC50) (11β-HSD IC50 (nM)) of 262 nM.

In the case of `CC1(C)[C@H]2Cc3c(O)cccc3[C@]1(C)CCN2C(=O)c1ccccc1C#N` [Example 8, 2-[(2R,6S)-10-Hydroxy-6,11,11-trimethyl-1,2,5,6-tetrahydro-4H-2,6-methano-benzo[d]azocine-3-carbonyl]-benzonitrile], the IC50 (11β-HSD IC50 (nM)) turned out to be 3360 nM.

The compound `CC(=O)Nc1cccc(C(=O)N2CC[C@@]3(C)c4cccc(O)c4C[C@@H]2C3(C)C)c1` [Example 9, N-{3-[(2R,6S)-10-Hydroxy-6,11,11-trimethyl-1,2,5,6-tetrahydro-4H-2,6-methano-benzo[d]azocine-3-carbonyl]-phenyl}-acetamide] displayed a 50% inhibitory concentration (IC50) (11β-HSD IC50 (nM)) of 1980 nM.

Regarding `CC1(C)[C@H]2Cc3c(O)cccc3[C@]1(C)CCN2C(=O)c1cccc(C#N)c1` [Example 10, 3-[(2R,6S)-10-Hydroxy-6,11,11-trimethyl-1,2,5,6-tetrahydro-4H-2,6-methano-benzo[d]azocine-3-carbonyl]-benzonitrile], under “11β-HSD IC50 (nM)”, the IC50 amounted to 1780 nM.

As for `COc1cccc(C(=O)N2CC[C@@]3(C)c4cccc(O)c4C[C@@H]2C3(C)C)c1` [Example 11, [(2R,6S)-10-Hydroxy-6,11,11-trimethyl-1,2,5,6-tetrahydro-4H-2,6-methano-benzo[d]azocin-3-yl]-(3-methoxy-phenyl)-methanone], it took 530 nM to reach half-maximal inhibition (11β-HSD IC50 (nM)) (IC50).

One may read the IC50 as the point on the concentration scale where inhibition reaches its midpoint.
